Measurements as given in patent publication US10376453B1, “Composition for promoting hair growth containing novel pantetheine derivative” (KOREA INSTITUTE OF OCEAN SCIENCE AND TECHNOLOGY, priority 2016, dated 2019).

Test system: dermal papilla cells
Assay: Measurement of viability of dermal papilla cells (MTT); promotion of growth of dermal papilla cells
Format: cell-based, human
Conditions: 24 hours culture, MTT absorbance at 570 nm, Control = 100
Experimental: For cell culture, Dulbecco's Modified Eagle Medium (DMEM), fetal bovine serum (FBS), 0.25% trypsin-1 mM EDTA, and penicillin-streptomycin were used, and dermal papilla cells were cultured at 37° C. in a humidified 5% CO2. The medium was replaced twice a week, and the cultured dermal papilla cells were washed with PBS within 6-7 days. Next, the attached cells were separated by 0.05% trypsin-0.02% EDTA, centrifuged, and then subcultured for experiments. Specifically, 200 μl of dermal papilla cells were dispensed into each well of a 96-well plate at a density of 1×10^4 cells/well, and cultured under the conditions of 37° C. and 5% CO2 for 18 hours so as to be attached to each well. After 18 hours, the medium was removed, and 200 μl of samples was added to each well having the cells attached thereto, followed by culture for 24 hours. After the medium was removed, 100 μl of a solution of 3-(4,5-dimethylthiazol)-2,5-diphenyltetrazoliumbromide(MTT), prepared by dissolving MTT in PBS at a concentration of 500 μg/ml, was added to the cultured cells, followed by culture for 4 hours under the same conditions as described above. The formed formazan crystal was dissolved in DMSO, and the absorbance at 570 nm was measured using an ELISA reader. The measured OD values ranging from 0.00 to 3.50 were used for the experimental results. The sample for treatment of the cells was used at concentrations of 0.5, 5 and 50 μM.

Molecule	Effect on the growth of dermal papilla cells (0.5 μM sample)	Effect on the growth of dermal papilla cells (5 μM sample)	Effect on the growth of dermal papilla cells (50 μM sample)
CC(C)(CO)[C@@H](O)C(=O)NCCC(=O)NCCSC(=O)c1ccc(O)cc1O [S7, 2,4-dihydroxybenzoyl-D-pantetheine]	95.73	97.32	93.12
C=CCCCCCCCCC(=O)SCCNC(=O)CCNC(=O)[C@H](O)C(C)(C)CO [S5, 10-undecenoyl-D-pantetheine]	111.24	93.01	101.62
C=CCCC(=O)SCCNC(=O)CCNC(=O)[C@H](O)C(C)(C)CO [S4, 4-pentenoyl-D-pantetheine]	116.88	122.89	111.97
isobutyl formate-D-pantetheine [S6]	130.57	112.94	135.95
CCC(C)C(=O)SCCNC(=O)CCNC(=O)[C@H](O)C(C)(C)CO (stereo partly drawn) [S1, 2-methylbutyryl-D-pantetheine]	113.31	129.65	139.19
cinnamoyl-D-pantetheine [S3]	119.77	122.38	133.33
Nc1cc(N2CCCCC2)nc(N)[n+]1[O-] [minoxidil, reference compound]	146.66	146.52	140.29
CC(C)CC(=O)SCCNC(=O)CCNC(=O)[C@H](O)C(C)(C)CO [S2, 3-methylbutyryl-D-pantetheine]	121.04	114.65	121.28
